Measured values: US10829520B2, “Beta-hairpin peptidomimetics” (POLYPHOR AG, priority 2015, dated 2020)
Where a SMILES comes first, the peptide text is derived from it. Bridges are numbered along the chain shown (N, C = ends). [ ]: non-standard residue; d: D form. Pro(trans-4-F) = O=C(O)[C@@H]1C[C@@H](F)CN1; Hyp = O=C(O)[C@@H]1C[C@@H](O)CN1; Pen = CC(C)(S)[C@H](N)C(=O)O; Tle = CC(C)(C)[C@H](N)C(=O)O; dDab = NCC[C@@H](N)C(=O)O; Orn = NCCC[C@H](N)C(=O)O; Dab = NCC[C@H](N)C(=O)O

Key:
Assay type in all cases: cell-based
[1] = system: Acinetobacter baumannii 872842; conditions: 872842
[2] = system: Acinetobacter baumannii DSM 30008; conditions: DSM 30008
How it was run: (§1)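 Peptide stocks (1 mg/mL, water) were diluted two-fold into MH-II broth with 0.002% P-80 and mixed with approx. 10^6 CFU/mL bacteria. Plates were read visually after 18-20 hours at 35° C, with MIC expressed in μg/mL per CLSI.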

[3] = system: Escherichia coli 926415; conditions: 926415
[4] = system: Escherichia coli ATCC 25922; conditions: ATCC 25922
How it was run: as §1

[5] = system: Klebsiella pneumoniae 968733; conditions: 968733
[6] = system: Klebsiella pneumoniae SSI #3010; conditions: SSI #3010
How it was run: as §1

[7] = system: Pseudomonas aeruginosa ATCC 27853; conditions: ATCC 27853
How it was run: as §1

[8] = system: human red blood cells (hRBC); assay: Hemolysis of human red blood cells; conditions: red cells of human, 1 h, 100 μg/mL
How it was run: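 Each peptide was tested at a single concentration, 100 μg/mL. Erythrocytes (20% v/v) were incubated 1 h at 37° C. under shaking at 300 rpm, centrifuged, and released hemoglobin measured at OD540. Controls were PBS containing 0.001% acetic acid (0%) and Triton X-100 (100%).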

| Structure (SMILES) | Acinetobacter baumannii 872842 MIC [1] [µg/mL] | Acinetobacter baumannii DSM 30008 MIC [2] [µg/mL] | Escherichia coli 926415 MIC [3] [µg/mL] | Escherichia coli ATCC 25922 MIC [4] [µg/mL] | Klebsiella pneumoniae 968733 MIC [5] [µg/mL] | Klebsiella pneumoniae SSI #3010 MIC [6] [µg/mL] | Pseudomonas aeruginosa ATCC 27853 MIC [7] [µg/mL] | Hemolysis at 100 μg/mL [8] [%] |
| --- | --- | --- | --- | --- | --- | --- | --- | --- |
| CC(=O)N[C@@H](Cc1c[nH]c2ccccc12)C(=O)N[C@H]1CSSC[C@@H](C(=O)N[C@@H](CCCN)C(=O)N[C@H](C(=O)N[C@@H](CCN)C(=O)N[C@H]2CCNC(=O)[C@H]([C@@H](C)O)NC(=O)[C@H](CCN)NC(=O)[C@H](CCN)NC(=O)[C@H](CC(C)C)NC(=O)[C@@H](Cc3ccccc3)NC(=O)[C@H](CCN)NC2=O)[C@@H](C)O)NC(=O)[C@H](Cc2ccc(O)cc2)NC(=O)[C@H](CO)NC(=O)[C@H]([C@@H](C)O)NC(=O)[C@@H]2CCCN2C(=O)[C@H]2CCCN2C(=O)[C@H](CC(C)C)NC(=O)[C@H](C)NC(=O)[C@H](C(C)(C)C)NC1=O [Ex. 118] (Ac-WC[Tle]AL[dP]PTSYC[Orn]T[Dab][Dab][Dab][dF]L[Dab][Dab]T; disulfide 2-11; lactam 15-C) | 0.25 | 0.25 | 0.5 | 0.5 | 0.5 | 0.5 | 2 | 2 |
| CC[C@H](C)[C@@H]1NC(=O)[C@@H]2CCCN2C(=O)[C@H]2CCCN2C(=O)[C@H](Cc2ccc(O)cc2)NC(=O)[C@@H](NC(=O)[C@@H](NC(=O)[C@H](CCN)NC(=O)[C@H](CC(C)C)NC(C)=O)C(C)C)CSSC[C@@H](C(=O)N[C@@H](Cc2ccc(O)cc2)C(=O)N[C@@H](CCN)C(=O)N[C@@H](CCCN)C(=O)N[C@H](CCN)C(=O)N[C@@H](CCN)C(=O)N[C@H]2CCNC(=O)[C@H]([C@@H](C)O)NC(=O)[C@H](CCN)NC(=O)[C@H](CCN)NC(=O)[C@H](CC(C)C)NC(=O)[C@@H](Cc3ccccc3)NC(=O)[C@H](CCN)NC2=O)NC1=O [Ex. 119] (Ac-L[Dab]VCY[dP]PICY[Dab][Orn][dDab][Dab][Dab][Dab][dF]L[Dab][Dab]T; disulfide 4-9; lactam 15-C) | 0.5 | 0.5 | 1 | 0.25 | 4 | 1 | 0.25 | 0.5 |
| CC(=O)N[C@@H](Cc1c[nH]c2ccccc12)C(=O)N[C@@H](C)C(=O)N[C@H](C(=O)N[C@H]1CSSC[C@@H](C(=O)N[C@@H](Cc2ccc(O)cc2)C(=O)N[C@@H](C)C(=O)N[C@@H](CCCN)C(=O)N[C@H](CCN)C(=O)N[C@@H](CCN)C(=O)N[C@H]2CCNC(=O)[C@H]([C@@H](C)O)NC(=O)[C@H](CCN)NC(=O)[C@H](CCN)NC(=O)[C@H](CC(C)C)NC(=O)[C@@H](Cc3ccccc3)NC(=O)[C@H](CCN)NC2=O)NC(=O)[C@H](CC(C)C)NC(=O)[C@H](CCN)NC(=O)[C@H]2CCCN2C(=O)[C@H](C(C)C)NC1=O)C(C)C [Ex. 120] (Ac-WAVCV[dP][Dab]LCYA[Orn][dDab][Dab][Dab][Dab][dF]L[Dab][Dab]T; disulfide 4-9; lactam 15-C) | 0.25 | 0.25 | 2 | 1 | 8 | 1 | 1 | <1 |
| CC(C)C[C@@H]1NC(=O)[C@@H](CC(C)C)NC(=O)[C@H](CCN)NC(=O)[C@@H](NC(=O)[C@H](CCN)NC(=O)[C@H](NC(=O)[C@H](CCN)NC(=O)[C@H](CCCN)NC(=O)[C@@H]2CSSC[C@H](NC(=O)[C@@H](N)Cc3c[nH]c4ccccc34)C(=O)N[C@@H](C(C)C)C(=O)N[C@@H](C)C(=O)N[C@@H](CO)C(=O)N3CCC[C@@H]3C(=O)N3CCC[C@H]3C(=O)N[C@@H](CC(C)C)C(=O)N[C@@H](CO)C(=O)N[C@@H](Cc3ccc(O)cc3)C(=O)N2)[C@H](C)O)CCNC(=O)[C@H]([C@@H](C)O)NC(=O)[C@H](CCN)NC(=O)[C@H](CCN)NC1=O [Ex. 121] (H-WCVAS[dP]PLSYC[Orn][Dab][dT][Dab][Dab][Dab][dL]L[Dab][Dab]T; disulfide 2-11; lactam 16-C) | 0.125 | 0.125 | 0.125 | 0.125 | 0.25 | 0.25 | 0.5 | <1 |
| CC(C)C[C@@H]1NC(=O)[C@@H](CC(C)C)NC(=O)[C@H](CCN)NC(=O)[C@@H](NC(=O)[C@H](CCN)NC(=O)[C@@H](NC(=O)[C@H](CCN)NC(=O)[C@H](CCN)NC(=O)[C@H]2NC(=O)[C@H](Cc3ccc(O)cc3)NC(=O)[C@H](CO)NC(=O)[C@H](CC(C)C)NC(=O)[C@@H]3CCCN3C(=O)[C@H]3CCCN3C(=O)[C@H](CO)NC(=O)[C@H](C)NC(=O)[C@H](C(C)C)NC(=O)[C@@H](NC(=O)[C@@H](N)Cc3c[nH]c4ccccc34)C(C)(C)SSC2(C)C)[C@@H](C)O)CCNC(=O)[C@H]([C@@H](C)O)NC(=O)[C@H](CCN)NC(=O)[C@H](CCN)NC1=O [Ex. 122] (H-W[Pen]VAS[dP]PLSY[Pen][Dab][Dab]T[Dab][Dab][Dab][dL]L[Dab][Dab]T; disulfide 2-11; lactam 16-C) | 0.03125 | 0.125 | 0.25 | 0.0625 | 1 | 0.5 | 0.5 | 2 |
| CC(C)C[C@@H]1NC(=O)[C@@H](CC(C)C)NC(=O)[C@H](CCN)NC(=O)[C@@H](NC(=O)[C@H](CCN)NC(=O)[C@@H](NC(=O)[C@H](CCN)NC(=O)[C@H](CCN)NC(=O)[C@@H]2CSSC[C@H](NC(=O)[C@@H](N)Cc3c[nH]c4ccccc34)C(=O)N[C@@H](C(C)C)C(=O)N[C@@H](C)C(=O)N[C@@H](CO)C(=O)N3CCC[C@@H]3C(=O)N3C[C@H](O)C[C@H]3C(=O)N[C@@H](CC(C)C)C(=O)N[C@@H](CO)C(=O)N[C@@H](Cc3ccc(O)cc3)C(=O)N2)[C@@H](C)O)CCNC(=O)[C@H]([C@@H](C)O)NC(=O)[C@H](CCN)NC(=O)[C@H](CCN)NC1=O [Ex. 123] (H-WCVAS[dP][Hyp]LSYC[Dab][Dab]T[Dab][Dab][Dab][dL]L[Dab][Dab]T; disulfide 2-11; lactam 16-C) | 0.0625 | 0.25 | 0.25 | 0.125 | 4 | 0.125 | 1 | <1 |
| CC(C)C[C@@H]1NC(=O)[C@@H](CC(C)C)NC(=O)[C@H](CCN)NC(=O)[C@@H](NC(=O)[C@H](CCN)NC(=O)[C@@H](NC(=O)[C@H](CCN)NC(=O)[C@H](CCN)NC(=O)[C@@H]2CSSC[C@H](NC(=O)[C@@H](N)Cc3c[nH]c4ccccc34)C(=O)N[C@@H](C(C)C)C(=O)N[C@@H](C)C(=O)N[C@@H](CO)C(=O)N3CCC[C@@H]3C(=O)N3C[C@H](F)C[C@H]3C(=O)N[C@@H](CC(C)C)C(=O)N[C@@H](CO)C(=O)N[C@@H](Cc3ccc(O)cc3)C(=O)N2)[C@@H](C)O)CCNC(=O)[C@H]([C@@H](C)O)NC(=O)[C@H](CCN)NC(=O)[C@H](CCN)NC1=O [Ex. 124] (H-WCVAS[dP][Pro(trans-4-F)]LSYC[Dab][Dab]T[Dab][Dab][Dab][dL]L[Dab][Dab]T; disulfide 2-11; lactam 16-C) | 0.25 | 0.125 | 0.125 | 0.0625 | 0.5 | 0.125 | 0.5 | 1 |
